The values below come from publication PMC9378861, “Formation and metabolism of 6-(1-acetol)-8-(1-acetol)-rutin in foods and in vivo, and their cytotoxicity” (Frontiers in Nutrition, 2022).

Where “and” joins values, the source holds several entries; their conditions need not be identical. Equal values may be shown once.

A short description of data set [1]: Rutin-MGO adducts in tissues, urine and feces of rats 24 h after oral rutin. To be noted: for Concentration in feces: feces collected within 24 h after rutin 100 mg/kg BW oral; for Concentration in urine: urine collected within 24 h after rutin 100 mg/kg BW oral. Format: in vivo, Sprague–Dawley rats. The protocol: (§1) The animals were treated as described in the study by Chen et al. ([22]). In brief, five 7 weeks old male Sprague–Dawley rats (190–220 g) were exposed to rutin (100 mg/kg BW) by oral gavage after fasting for 16 h. The plasma samples were collected at 0.25, 0.5, 1, 2, 4, 6, 8, 10, and 24 h after the administration, and stored under −80°C until analysis. The feces and urine were collected with the metabolic cages throughout the 24 h period. At 24 h, the rats were sacrificed after anesthetization, and the tissues including stomach, intestine (divided into duodenum, jejunum, ileum, caecum, and colon), heart, liver, kidney, and brain were taken and frozen immediately in liquid nitrogen and transferred to a deep freezer (−80°C) for storage before analysis. The procedures of the animal study followed the protocol by the Institutional Animal Care and Use Committee of the Laboratory Animal Center of Jinan University.
(§2) The plasma samples were treated as described by Chen et al. ([22]). About half gram of feces and tissue samples were weight accurately, and homogenized with 2 mL saline on an ice-bath. The homogenates were transferred to a centrifuge tube, added with 1 mL PBS (pH 5.0, 0.05 M) and 100 μL ascorbic acid (150 mg/mL), and extracted with 3 mL of methanol twice. The supernatants were combined after centrifugation at 13,000 × g under 4 °C for 10 min, evaporated to dryness, re-dissolved in 500 μL of 50% aqueous methanol containing 0.1% formic acid (v/v), and filtered through a 0.22 μm membrane for HPLC-MS/MS analysis. The adducts in 200 μL of urine were extracted twice with 1 mL methanol. The supernatants were collected after centrifugation at 13,000 × g under 4°C for 10 min, and evaporated to dryness. The residues were dissolved in 200 μL of 50% aqueous methanol containing 0.1% formic acid (v/v), and filtered through a 0.22 μm membrane for HPLC-MS/MS analysis. A sample of 1 μL was injected into an Agilent Technologies 1,260 Infinity HPLC (Agilent Technologies, CA, USA) interfaced to an AB 4500 Q-Trap mass spectrometer (AB Sciex, MA, USA) in the negative mode for quantification of adducts A and B, respectively. The eluting programs for HPLC analysis, and the operation conditions of mass spectrometer refers to those established by Chen et al. ([22]). […] Moreover, as the information on the occurrence levels of 6-(1,2-propanedione)-8-(1-acetol)-rutin, 6-(1-acetol)-8-(1,2-propanedione)-rutin, and 6-(1,2-propanedione)-8-(1,2-propanedione)-rutin discovered in the last study was still missing, the concentration of these oxidized rutin-MGO adducts in various tissues and urine and feces were also determined in this study. The qualification and quantification fragmentation transitions of these adducts refers to those provided previously ([22]).

For data set [2] the following is noted: rats, 15 min after administration of rutin; cited from earlier work.
The nature of data set [3]: Plasma concentration of rutin-MGO adducts in rats after oral rutin (HPLC-MS/MS, MRM). In kind it is in vivo, Sprague–Dawley rats. The protocol: as §1, §2
For data set [4] the following is noted: cited from earlier work; for Elimination rate on MGO (MGO scavenged): incubated with MGO at 37°C for 24 h.
For data set [5], the system named is human umbilical vein endothelial (HUVEC) cell. The experiment in a line: Cytotoxicity by MTT assay, HUVEC. Particulars: 1 mM, 24 h. Format: cell-based.
The test system of data set [6] is human gastric epithelial cell line (GES-1). Description: Cytotoxicity by MTT assay, GES-1. Particulars: 24 h. In kind it is cell-based. Background: Tetrazolium assays rely on reduction of a dye to a coloured formazan, in cell work by metabolically active cells.
Data set [7] relates to human colon carcinoma cell line (Caco-2). Description: Cytotoxicity by MTT assay, Caco-2. To be noted: Caco-2, 1 mM, 24 h. Format: cell-based.
On the set-up of data set [8]: method as in PMID 19916501. To be noted: anesthetized, mesenteric lymphatic/duodenum-cannulated rat model; cited from earlier work.
Another data set deals with AGEs. To be noted: cited from earlier work.
Setting [9] is: 24 h after rutin 100 mg/kg BW oral.
[10] abbreviates: rutin 100 mg/kg BW oral gavage, time point 0.25 h.
The mark [11] stands for this setting: rutin 100 mg/kg BW oral gavage, time point 1.00 h.
Setting [12] is: rutin 100 mg/kg BW oral gavage, time point 2.00 h.

With `CC(=O)C(=O)c1c(O)c(C(=O)C(C)=O)c2oc(-c3ccc(O)c(O)c3)c(O[C@@H]3O[C@H](CO[C@@H]4O[C@@H](C)[C@H](O)[C@@H](O)[C@H]4O)[C@@H](O)[C@H](O)[C@H]3O)c(=O)c2c1O` [6-(1,2-propanedione)-8-(1,2-propanedione)-rutin], in data set [1] (setting [9]), the Concentration in brain came out at 0.12 ± 0.02 µg/kg, the Concentration in caecum result was “trace”, the Concentration in heart turned out to be 0.14 ± 0.09 µg/kg and the Concentration in ileum entry is recorded as “trace”. In addition, in data set [1] (setting [9]), the Concentration in kidney was found to be 0.16 ± 0.04 µg/kg; the Concentration in liver is 0.09 µg/kg and 0.09 ± 0.01 µg/kg; the Concentration in stomach is 0.10 µg/kg and 0.10 ± 0.01 µg/kg. For the same compound, in data set [1], the Concentration in feces stood at 0.26 ± 0.18 µg/kg; the Concentration in urine was 0.10 ng/mL and 0.10 ± 0.01 ng/mL. Besides, the “Content in feces, folds lower than 6-(1,2-propanedione)-8-(1-acetol)-rutin and 6-(1-acetol)-8-(1,2-propanedione)-rutin” value in data set [1] (feces within 24 h after rutin 100 mg/kg BW oral) is on record as 6–9 folds. Moreover, the “Plasma concentration of oxidized rutin-MGO adducts” value in data set [2] was 1.02 ng/mL.

With `CC(=O)C(=O)c1c(O)c(C(O)C(C)=O)c2oc(-c3ccc(O)c(O)c3)c(OC3OC(COC4OC(C)C(O)C(O)C4O)C(O)C(O)C3O)c(=O)c2c1O` (stereo not shown) [6-(1,2-propanedione)-8-(1-acetol)-rutin], in [1] (setting [9]), the Concentration in brain was found to be 0.11 ± 0.02 µg/kg, the Concentration in heart came out at 0.09 ± 0.03 µg/kg, the Concentration in ileum entry is on record as “trace” and the Concentration in kidney was determined as 0.07 ± 0.01 µg/kg. In addition, the Concentration in liver result in [1] (setting [9]) is “trace”. In data set [1], the Concentration in feces came to 1.54 ± 0.49 µg/kg and the Concentration in urine entry is “trace”. In addition, the “Plasma concentration of oxidized rutin-MGO adducts” value in data set [2] was 2.38 ng/mL.

As to `CC(=O)C(=O)c1c(O)c(C(O)C(C)=O)c(O)c2c(=O)c(O[C@@H]3O[C@H](CO[C@@H]4O[C@@H](C)[C@H](O)[C@@H](O)[C@H]4O)[C@@H](O)[C@H](O)[C@H]3O)c(-c3ccc(O)c(O)c3)oc12` (stereo partly shown) [6-(1-acetol)-8-(1,2-propanedione)-rutin], in data set [1] (setting [9]), the Concentration in brain worked out at 0.45 ± 0.28 µg/kg, the Concentration in colon entry is “trace”, the Concentration in heart result was “trace” and the Concentration in ileum result is “trace”. In data set [1] (setting [9]), the Concentration in kidney amounted to 0.12 ± 0.02 µg/kg, the Concentration in liver result was “trace” and the Concentration in stomach entry is listed as “trace”. Further, in [1], the Concentration in feces turned out to be 2.23 ± 0.54 µg/kg; the Concentration in urine is 0.09 ng/mL and 0.09 ± 0.00 ng/mL. The “Plasma concentration of oxidized rutin-MGO adducts” value in [2] was 1.61 ng/mL.

Regarding `CC(=O)C(O)c1c(O)c(C(O)C(C)=O)c2oc(-c3ccc(O)c(O)c3)c(O[C@@H]3O[C@H](CO[C@@H]4O[C@@H](C)[C@H](O)[C@@H](O)[C@H]4O)[C@@H](O)[C@H](O)[C@H]3O)c(=O)c2c1O` (stereo partly shown) [6-(1-acetol)-8-(1-acetol)-rutin], the “Total (maximum) level in plasma, sum of adducts A and B” value in data set [3] (15 min after oral rutin 100 mg/kg BW) stood at 15.80 µg/L.

In the case of `O=C(O[C@@H]1Cc2c(O)cc(O)cc2O[C@@H]1c1cc(O)c(O)c(O)c1)c1cc(O)c(O)c(O)c1` [(–)-epigallocatechin gallate], in [4], the “Elimination rate on MGO (MGO scavenged)” value was 99%.

As to `CC(=O)C(O)c1c(O)c(C(O)C(C)=O)c2oc(-c3ccc(O)c(O)c3)c(OC3OC(COC4OC(C)C(O)C(O)C4O)C(O)C(O)C3O)c(=O)c2c1O` (stereo not shown) [Adduct A, 6-(1-acetol)-8-(1-acetol)-rutin], the Concentration in kidney entry in [1] (setting [9]) is “trace”. In data set [1], the Concentration in feces entry is “Trace”. For the same compound, the concentration at 0.25 h in data set [3] (male, Sprague-Dawley, rat, plasma, oral, rutin 100 mg/kg BW oral gavage, time point 0.25 h) is 9.4 ng/mL. In addition, the Plasma concentration was 9.40 ± 6.37 ng/mL in [3] (setting [10]); “trace” in data set [3] (setting [11]); “trace” in data set [3] (setting [12]); “trace” in [3] (rutin 100 mg/kg BW oral gavage, time point 10.00 h). In addition, the “Reduction of cell viability (cells dead)” value is 19% in data set [5]; 27% in data set [6] (GES-1, 1 mM); 19% in data set [7].

On to `CC(=O)C(O)c1c(O)c(C(O)C(C)=O)c2oc(-c3ccc(O)c(O)c3)c(OC3OC(COC4OC(C)C(O)C(O)C4O)C(O)C(O)C3O)c(=O)c2c1O` (stereo not shown) [Adduct B, 6-(1-acetol)-8-(1-acetol)-rutin], for which the Concentration in kidney entry in data set [1] (setting [9]) is given as “trace”. For the same compound, the Concentration in feces entry in [1] was “Trace”. Moreover, the Plasma concentration was 6.40 ng/mL and 6.40 ± 3.90 ng/mL in [3] (setting [10]); “trace” in data set [3] (setting [11]); “trace” in [3] (setting [12]); “trace” in data set [3] (rutin 100 mg/kg BW oral gavage, time point 8.00 h); “trace” in data set [3] (rutin 100 mg/kg BW oral gavage, time point 24.00 h). The “Reduction of cell viability (cells dead)” value came to 16% in [5]; 25% in data set [6] (GES-1, 1 mM); 18% in data set [7].

In the case of `CC(=O)C=O` [MGO, Methylglyoxal], the “Growth of the cells inhibited” value in [6] (GES-1, 600 μM) is recorded as “more than 50%”; in data set [6] (GES-1, 200–400 μM), 18–19%. The Cells left alive in [6] (GES-1, 1 mM) worked out at 17%.

With `O=c1cc(-c2ccc(O)cc2)oc2cc(O)cc(O)c12` [apigenin], in data set [4], the “Elimination rate on MGO (MGO scavenged)” value is recorded as 40%.

On to `Oc1cc(O)c2c(c1)O[C@H](c1ccc(O)c(O)c1)[C@H](O)C2` [epicatechin], for which, in data set [4], the “Elimination rate on MGO (MGO scavenged)” value was 99%.

Regarding `COc1ccc([C@@H]2CC(=O)c3c(O)cc(O)cc3O2)cc1O` [hesperetin], in data set [4], the “Elimination rate on MGO (MGO scavenged)” value is recorded as 63%.

`O=C(CCc1ccc(O)cc1)c1c(O)cc(O)cc1O` [phloretin]: in data set [4], the “Elimination rate on MGO (MGO scavenged)” value is on record as 99%.

In the case of `C[C@@H]1O[C@@H](OC[C@H]2O[C@@H](Oc3c(-c4ccc(O)c(O)c4)oc4cc(O)cc(O)c4c3=O)[C@H](O)[C@@H](O)[C@@H]2O)[C@H](O)[C@H](O)[C@H]1O` [rutin, quercetin-3-O-rutinoside], in data set [8], the “Time at which plasma concentration reached maximum” value is reported as 60 min. Also, the “Reduction of cell viability (cells dead)” value in data set [5] stood at 12%; in data set [6] (GES-1, 1 mM) it was 16%; in data set [7] it was 15%. The “Inhibitory effect on the formation of AGEs in glycation reaction” value in the data set on AGEs was “more than 90%”. Moreover, in [4] (rutin 0.5 mM with MGO 0.5 mM, 37 °C, 24 h, simulated physiological condition), the MGO eliminated was 50%.
